One experiment deals with T1, human E-cadherin (human, UniProt P12830 155-882).
T1 sequence: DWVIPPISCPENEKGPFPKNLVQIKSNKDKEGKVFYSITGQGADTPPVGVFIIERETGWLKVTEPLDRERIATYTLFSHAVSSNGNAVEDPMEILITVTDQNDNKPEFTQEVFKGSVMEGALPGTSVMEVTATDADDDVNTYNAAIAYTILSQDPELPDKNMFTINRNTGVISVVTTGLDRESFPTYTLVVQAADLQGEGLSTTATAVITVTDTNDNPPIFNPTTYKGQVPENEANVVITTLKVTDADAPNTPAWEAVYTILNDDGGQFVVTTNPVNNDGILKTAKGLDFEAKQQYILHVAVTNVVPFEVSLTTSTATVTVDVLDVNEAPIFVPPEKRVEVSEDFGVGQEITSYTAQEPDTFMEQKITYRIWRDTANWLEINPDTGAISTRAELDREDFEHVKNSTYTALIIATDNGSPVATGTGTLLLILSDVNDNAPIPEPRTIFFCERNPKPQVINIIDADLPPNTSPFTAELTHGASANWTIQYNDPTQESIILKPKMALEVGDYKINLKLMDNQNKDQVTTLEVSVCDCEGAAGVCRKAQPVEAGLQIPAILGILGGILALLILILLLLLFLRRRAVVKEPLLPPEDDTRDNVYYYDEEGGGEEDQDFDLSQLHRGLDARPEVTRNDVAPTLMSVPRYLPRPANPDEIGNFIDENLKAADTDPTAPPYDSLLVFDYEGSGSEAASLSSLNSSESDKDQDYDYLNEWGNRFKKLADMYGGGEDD
As to the kind of experiment: cell-based or functional assay.

For experiment [1], the system named is Human iPS cells (hiPSCs). Description: Neural differentiation of hiPSCs using E-cadherin inhibitors, Nestin immunofluorescence. The following applies: day 7; for number of Nestin positive cells: treated daily, peptides 1 mM, antibody 2 μg/ml. It counts as cell-based. As to the method: Human iPSCs were differentiated as previously described. Peptides A, B or C were supplemented to the media at a final concentration of 1 mM and E-cadherin neutralising antibody supplemented to the media at 2 μg/ml daily for 6-7 days. The equivalent volume of water was added to cultures as a vehicle control.
All other methodology was performed as outlined above in connection with neural differentiation and characterisation of resultant neural progenitor cells (NPCs). […] Accordingly, supplementation in this manner may be a preferred embodiment of methods of the invention as practiced upon pluripotent stem cells such as iPSCs.
To initiate differentiation confluent undifferentiated cells were dissociated and seeded at a low density onto gelatin coated wells in differentiation medium supplemented with/without E-cadherin-inhibitors for 7 days. To identify the phenotype of these cells, cultures were harvested at day 7 and immunofluorescent analysis of the neural progenitor cell marker Nestin was performed (FIG. 10).

In experiment [2] the test system is Human iPS cells (hiPSCs). As to the kind of experiment: Effect of E-cadherin inhibitors on cell-cell contact in pluripotent hiPSCs (phase contrast). It counts as cell-based. The following applies: 48 h in MTesR complete media, adherent feeder free. The procedure: Human iPS cells (hiPSCs) were grown under adherent feeder-free culture conditions. All cells were propagated for a minimum of two passages as feeder-free cultures to exclude unwanted residual mouse fibroblast feeder cells. Cells were cultured in MTesR complete medium (Stem Cell Technologies). Cells were cultured on Matrigel™- (BD Biosciences 356234) coated tissue culture grade plates. Matrigel-treated plates were coated with pre-diluted Matrigel™ (1:100 in DMEM/F12 media) and incubated at room temperature prior to use. Media was replenished every 24 h and cells were passaged upon confluency. Cells were dissociated using trypsin-EDTA.
Human iPS cells were grown under standard adherent feeder-free culture conditions prior to induction of differentiation.

Another experiment relates to Human ES cells. Description: Assessment of non-neuronal lineages in directed neural differentiation of human ES cells. It counts as cell-based. The procedure: (§1) Confluent undifferentiated cells were dissociated and seeded at a low density (2.0E5 cells/962 mm2) onto 0.1% w/v gelatin coated wells in differentiation medium alone (DMEM/F-12+GlutaMAX (Invitrogen), 10% Knockout Serum Replacement (KSR) (Invitrogen), Penicillin/Streptomycin (1×) (PAA) for 24 hours prior to media supplementation with an E-cadherin inhibiting peptide (H-Ser-Trp-Glu-Leu-Tyr-Tyr-Pro-Leu-Arg-Ala-Asn-Leu-NH2, >95% purity, acetate salt background) (Bachem) as published in Devemy & Blashuk (2009). Peptide was reconstituted at 30 mg/ml in sterile ddH2O (20 mM stock concentration), with a working concentration 500 μM for inhibition of human E-cadherin. Media (and peptide) were replenished every 2 days for 6-7 days. After this time peptide is no longer necessary. Morphological analysis and immunostaining with markers for neural precursor cells and more mature neural cells were performed during the course of the differentiation protocol.
Cells were fixed in 4% w/v paraformaldehyde and stained in situ (Mohamet et al, 2010). […] The cells were viewed on a Leica DM500 fluorescence microscope. […]

In experiment [3] the test system is Human ES cells (HUES7, H9, MAN7). As to the kind of experiment: Differentiation of human ES cells towards neural precursor cells in adherent culture, immunofluorescence of neural precursor markers. It is filed as cell-based. As to the method:
Human ES cell lines, HUES7 (passage 39-44), H9 (passage 50-55) and MAN7 (passage 18-21) were grown under adherent feeder-free culture conditions prior to induction of differentiation. Cells were cultured in STEMPRO® (Invitrogen—complete medium) which comprises; DMEM/F-12+GlutaMAX, 8 ng/ml FGF-basic factor (Peprotec), STEMPRO® hESC SFM Growth Supplement (1×), 1.8% BSA, and 0.1 Mm 2-mercaptoethanol. Cells were cultured on either Matrigel™- (BD Biosciences 356234) or Geltrex™- (Invitrogen 12760-021) coated tissue culture grade plates. Matrigel-treated plates were coated with pre-diluted Matrigel™ (1:100 in DMEM/F12 media) and incubated at room temperature prior to use. Geltrex™-coated plates were coated with pre-diluted Geltrex™ (1:29 in DMEM/F12 media) and incubated for 1 h at 37° C. prior to use. Media was replenished every 24 h and cells were passaged upon confluency. All cells were propagated for a minimum of two passages as feeder-free cultures to exclude unwanted residual mouse fibroblast feeder cells. Cells were dissociated either using trypsin-EDTA (Sigma) or Collagenase IV (Sigma-1 mg/ml final concentration) dependent on the ES cell line used.
as §1, with “Morphological analysis and immunostaining with markers for neural precursor cells and more mature neural cells were performed during the course of the differentiation protocol.” left out
Cells were fixed in 4% w/v paraformaldehyde and stained in situ (Mohamet et al, 2010). […] The cells were viewed on a Leica DM500 fluorescence microscope.

Entries after “also recorded” stand apart in the source; their conditions may differ. Where no end group is shown, it is not given here.

“E-cadherin neutralising antibody (SHE78.7 clone, Invitrogen 13-5700)” had a loss of cell-cell contact in hiPSCs (phase contrast, 48 h, antibody 2 ug/ml) with human E-cadherin of over 85%.

With “SWELYYPL (Inhibitory peptide) [Peptide C]”, the “Nestin positive cells, one experiment (variable results)” value in the experiment with Human iPS cells (hiPSCs) [1] (peptide 1 mM, one experiment only) is reported as “approx. 50%”. The “number of Nestin positive cells” value with Human iPS cells (hiPSCs) [1] is reported as 76%. Besides, the “loss of cell-cell contact, proportion of cells” value in the experiment on Human iPS cells (hiPSCs) [2] is 50-60%.

As to “SWELYYPLRANL (SWELYYPLRANL-NH2; also: acetate salt) [Peptide A, Study 1 used H-Ser-Trp-Glu-Leu-Tyr-Tyr-Pro-Leu-Arg-Ala-Asn-Leu-NH2 (Bachem, acetate salt background)]”, the “α smooth muscle actin (mesoderm) expression” value in the experiment with Human ES cells (cells harvested on day 15, n=3) is “only detected in 1 cell out of all cultures assessed”. Moreover, the “staining of endoderm marker Forkhead box protein A2 (foxA2)” value in the experiment with Human ES cells (differentiated for 15 days) was “no positive staining”. Besides, the “number of Nestin positive cells” value in the experiment with Human iPS cells (hiPSCs) [1] is on record as 94%; in experiment [3] (media supplemented with peptide 500 μM, 7 days of differentiation, n=3), 95.3%. For the same molecule, in experiment [3] (cultured 6-7 days in media supplemented with peptide), the “undifferentiated colonies (phase contrast)” value was “no undifferentiated colonies were observed”. For the same molecule, in experiment [3] (peptide 500 μM, harvested at day 7), the “NESTIN and VIMENTIN expression (immunofluorescence)” value is on record as “homogenous expression”.

Take SRELYYPLRANL [Peptide B, control]: the “number of Nestin positive cells” value with Human iPS cells (hiPSCs) [1] amounted to 33%. Further, the “culture morphology / cell-cell contacts” value in the experiment on Human iPS cells (hiPSCs) [2] is “retain the compacted morphology typical of hiPSCs; also recorded: retain the compacted morphology of hiPSCs, without loss of cell-cell contacts”.

B1: Peptide A (SWELYYPLRANL) (peptide)
peptide: SWELYYPLRANL
modifications: not fully specified
Regarding B1, the “loss of cell-cell contact in hiPSCs (phase contrast, 48 h, peptide 1 mM)” value with human E-cadherin is over 85%.

The values above are taken from patent US20150291933A1, “CELL DIFFERENTIATION” (THE UNIVERSITY OF MANCHESTER, priority 2012, published 2015).
